Legend:
Format in all cases: cell-based
[1] = test system: MCF-7 (breast carcinoma); test: MTS cell viability assay, MCF-7
Procedure: (§1) Cells were plated, the evening before treatment, for each treatment on 96-well plates (1×10^4 cells/well) in 100 μL volume per well. Analog solutions were prepared by diluting each test compound in DSMO (10 mM) with the appropriate cell growth media for each individual cell line, or in “Universal Media” if several cell lines were to be assayed in parallel, immediately prior to cell treatment. Universal Media consisted of 5 mL sodium pyruvate (100× liquid stock, MediaTech), 5 mL glucose (100×, 45% liquid stock, MediaTech), 5 mL Penicillin/Streptomycin (100× liquid stock, MediaTech), 10 mL sodium bicarbonate (50× liquid stock, MediaTech), 25 mL Fetal Calf Serum, 1.25 mL insulin (4 mg/mL, Gibco) and […] RPMI media with 2 mM L-glutamine for a total volume of 500 mL.
(§2) Cells were treated by aspirating plating media from each well and adding 80 μL of betulinic acid (control) or each analog solution in serial dilutions to the adherent cells. All treatments were performed in triplicate. Growth media (80 μL) was added to 3 blank wells (no cells) to measure background from the growth media. Growth media alone (no DMSO or test compound) was added to 3 wells containing cells to measure the baseline MTS activity. Vehicle (DMSO) control in serial dilutions, added to cells, was also included to monitor basal toxicity from DMSO. Cells were incubated at 37° C. for 72 h, or 120 h for the OVCAR cell lines. MTS reagent (per 96-well plate) were prepared by combining 2 mL of MTS working solution (Cell Titer AQueous Non-Radioactive Cell Proliferation Assay, Promega, cat#G1112), 100 μL of 0.92 mg/mL phenazine methosulfate/Dulbecco's PBS and 2.1 mL growth media. MTS reagent (40 μL) were added to each well and incubated at 37° C. for 1.5 to 4 h. Plates were gently shaken by hand until solution in each well appeared homogenous. Absorbances at 490 nm were measured on a Wallac Victor II plate reader at multiple time points following the addition of MTS reagent for each plate. Triplicate absorbance (490 nm) measurements were averaged following background (no cell) subtraction for each drug concentration. Percent Cell Viability was calculated for each drug concentration using the following equation:
(§3) {[Absorbance(analog treated)]/[Absorbance(DMSO treated)]}×100%
(§4) Cytotoxicity dose response for the triterpenoid derivatives synthesized in SK-MEL-2 (melanoma), A-375 (melanoma), Daoy (glioblastoma), LN-229 (glioblastoma), OVCAR-3 (ovarian carcinoma), HT-29 (colon carcinoma), MCF-7 (breast carcinoma) cell lines using the standard MTS assay is summarized in Table 1. In Table 1, compounds 22a-d and compounds 23a-c refer to structures 22 and 23 in Scheme 5, respectively. Compounds 24aa-an and 24ba-bq refer to structure 24 in Scheme 6. Compounds 26a-e refer to structure 26 in Scheme 6. Compounds 36a-c refer to structure 36 in Scheme 10.

[2] = test system: H-146; test: MTS cell viability assay, H-146; conditions: cells incubated 72 h
Procedure: as §1, §2, §3

[3] = test system: LN-229 (glioblastoma); test: MTS cell viability assay, LN-229
Procedure: as §1, §2, §3, §4

[4] = test system: CEM; test: MTS cell viability assay, CEM; conditions: cells incubated 72 h
Procedure: as §1, §2, §3

[5] = test system: Daoy; test: MTS cell viability assay, Daoy; conditions: cells incubated 72 h
Procedure: as §1, §2, §3, §4

[6] = test system: OVCAR-3 (ovarian carcinoma); test: MTS cell viability assay, OVCAR-3
Procedure: as §1, §2, §3, §4

[7] = test system: SK-MEL-2 (melanoma); test: MTS cell viability assay, SK-MEL-2
Procedure: as §1, §2, §3, §4

[8] = test system: HT-29 (colon carcinoma); test: MTS cell viability assay, HT-29
Procedure: as §1, §2, §3, §4

[9] = test system: A-375 (melanoma); test: MTS cell viability assay, A-375
Procedure: as §1, §2, §3, §4

[10] = Homo sapiens, MCF7, cells incubated 72 h
[11] = Homo sapiens, LN-229, cells incubated 72 h
[12] = Homo sapiens, OVCAR-3, 120 h for the OVCAR cell lines
[13] = Homo sapiens, SK-MEL-2, cells incubated 72 h
[14] = Homo sapiens, HT-29, cells incubated 72 h
[15] = Homo sapiens, A-375, cells incubated 72 h

C=C(C)[C@@H]1CC[C@]2(C(=O)O)CC[C@]3(C)[C@H](CC[C@@H]4[C@@]5(C)CC[C@H](O)C(C)(C)[C@@H]5CC[C@]43C)[C@@H]12 [Compound 1, betulinic acid (3β-hydroxy-lup-20(29)-en-28-oic acid), reference compound]
IC50 ([1]; cells incubated 72 h): 30 µM | IC50 [2]: 8 µM | IC50 ([3]; cells incubated 72 h): 29 µM | IC50 [4]: 2 µM | IC50 [5]: 11 µM | IC50 ([6]; 120 h for the OVCAR cell lines): 40 µM | IC50 ([7]; cells incubated 72 h): 7 µM | IC50 ([8]; cells incubated 72 h): 31 µM | IC50 ([9]; cells incubated 72 h): 22 µM

C=C(CO)[C@@H]1CC[C@]2(COC3CCCCO3)CC[C@]3(C)[C@H](CC[C@@H]4[C@@]5(C)CCC(=O)C(C)(C)[C@@H]5CC[C@]43C)[C@@H]12 (stereo partly shown) [Compound 5]
IC50 [1, 10]: 37 µM | IC50 [3, 11]: 46 µM | IC50 ([5]; Homo sapiens, Daoy): 35 µM | IC50 [6, 12]: 48 µM | IC50 [7, 13]: 34 µM | IC50 [8, 14]: 75 µM

C=C(C=O)[C@@H]1CC[C@]2(COC3CCCCO3)CC[C@]3(C)[C@H](CC[C@@H]4[C@@]5(C)CCC(=O)C(C)(C)[C@@H]5CC[C@]43C)[C@@H]12 (stereo partly shown) [Compound 9a]
IC50 [1, 10]: 32 µM | IC50 ([5]; Homo sapiens, Daoy): 7 µM | IC50 [6, 12]: 9 µM | IC50 [7, 13]: 7 µM | IC50 [8, 14]: 9 µM | IC50 [9, 15]: < 3 µM

C=C(C=O)[C@@H]1CC[C@]2(CO)CC[C@]3(C)[C@H](CC[C@@H]4[C@@]5(C)CCC(=O)C(C)(C)[C@@H]5CC[C@]43C)[C@@H]12 [Compound 9b]
IC50 [1, 10]: 56 µM | IC50 [3, 11]: 20 µM | IC50 ([5]; Homo sapiens, Daoy): 16 µM | IC50 [6, 12]: 6 µM | IC50 [7, 13]: 16 µM | IC50 [8, 14]: 52 µM | IC50 [9, 15]: 18 µM

C=C(C(OC)OC)[C@@H]1CC[C@]2(CO)CC[C@]3(C)[C@H](CC[C@@H]4[C@@]5(C)CCC(=O)C(C)(C)[C@@H]5CC[C@]43C)[C@@H]12 [Compound 10]
IC50 [1, 10]: 17 µM | IC50 [3, 11]: 24 µM | IC50 ([5]; Homo sapiens, Daoy): 17 µM | IC50 [6, 12]: 45 µM | IC50 [7, 13]: 17 µM | IC50 [8, 14]: 15 µM | IC50 [9, 15]: 7 µM

C=C(C=O)[C@@H]1CC[C@]2(COC(C)=O)CC[C@]3(C)[C@H](CC[C@@H]4[C@@]5(C)CCC(=O)C(C)(C)[C@@H]5CC[C@]43C)[C@@H]12 [Compound 14a]
IC50 [1, 10]: 56 µM | IC50 [3, 11]: 9 µM | IC50 ([5]; Homo sapiens, Daoy): 7 µM | IC50 [6, 12]: 4 µM | IC50 [7, 13]: 12 µM | IC50 [8, 14]: 46 µM | IC50 [9, 15]: 16 µM

C=C(COS(C)(=O)=O)[C@@H]1CC[C@]2(CO)CC[C@]3(C)[C@H](CC[C@@H]4[C@@]5(C)CCC(=O)C(C)(C)[C@@H]5CC[C@]43C)[C@@H]12 [Compound 21b]
IC50 [1, 10]: 54 µM | IC50 [3, 11]: 46 µM | IC50 ([5]; Homo sapiens, Daoy): > 75 µM | IC50 [6, 12]: > 75 µM | IC50 [7, 13]: > 75 µM | IC50 [8, 14]: 17 µM | IC50 [9, 15]: 21 µM

C=C(CNCCO)[C@@H]1CC[C@]2(CO)CC[C@]3(C)[C@H](CC[C@@H]4[C@@]5(C)CCC(=O)C(C)(C)[C@@H]5CC[C@]43C)[C@@H]12 [Compound 22b]
IC50 [1, 10]: 47 µM | IC50 [3, 11]: 16 µM | IC50 ([5]; Homo sapiens, Daoy): 47 µM | IC50 [6, 12]: 67 µM | IC50 [7, 13]: 45 µM | IC50 [8, 14]: 45 µM | IC50 [9, 15]: 10 µM

C=C(CO)[C@@H]1CC[C@]2(COC3CCCCO3)CC[C@]3(C)[C@H](CC[C@@H]4[C@@]5(C)CCC(N)C(C)(C)[C@@H]5CC[C@]43C)[C@@H]12 (stereo partly shown) [Compound 24aa]
IC50 [1, 10]: 6 µM | IC50 [3, 11]: 4 µM | IC50 ([5]; Homo sapiens, Daoy): 4 µM | IC50 [6, 12]: 15 µM | IC50 [7, 13]: 5 µM | IC50 [8, 14]: 12 µM | IC50 [9, 15]: 0.89 µM

C=C(CO)[C@@H]1CC[C@]2(COC3CCCCO3)CC[C@]3(C)[C@H](CC[C@@H]4[C@@]5(C)CCC(NCCO)C(C)(C)[C@@H]5CC[C@]43C)[C@@H]12 (stereo partly shown) [Compound 24ac]
IC50 [1, 10]: 36 µM | IC50 [3, 11]: 11 µM | IC50 ([5]; Homo sapiens, Daoy): 15 µM | IC50 [6, 12]: 7 µM | IC50 [7, 13]: 15 µM | IC50 [8, 14]: 60 µM | IC50 [9, 15]: 13 µM

Reference: patent publication US20090062243A1, “Lupane-Type Triterpenoids Modified at 30-Position and Analogues Thereof” (ADVANCED LIFE SCIENCES, INC., priority 2007, published 2009)
